Measurements as given in patent publication US12459951B2, “Compounds that interact with RAS superfamily proteins for treatment of cancers, inflammatory diseases, rasopathies, and fibrotic disease” (SHY Therapeutics, LLC, priority 2022, dated 2025).

Columns and labels:
Akt phosphorylation = assay: Akt Phosphorylation Assay (western blot), Panc-1; type: cell-based, human; settings: at 10 μM, * = activation
In short: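 Panc-1 (KRas G12D) cells were treated with compound at 10 μM final (0.3% DMSO) for 6 h at 37 °C, or with serial dilutions for IC50. Cells were either serum-starved overnight in 0.5% FBS and then stimulated with 1.5 ng/ml EGF for 15 min, or kept in 10% FBS without stimulation. Akt Ser473 phosphorylation in lysates was read by western blot.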

KRas G12D mutant = assay: Ras GTP Binding Domain Inhibition Assay (Ras Superfamily Assay); settings: 20 μM compound; for KRas G12D mutant + SOS: % inh.: with SOS; for KRas G12D mutant: % inh.: without SOS
In short: (§1)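 Ni-plate capture of His-tagged protein (10-30 μg/mL, o/n 4° C); cpd 20 μM or dilution series, 1% DMSO, 3 h RT ± Sos 556-1049 last h; 100 nM Cy-labelled GTP 45 min RT; 3× wash; fluorescence read.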

KRas Q61H mutant = assay: as above; settings: 20 μM compound; for KRas Q61H mutant + SOS: % inh.: with SOS; for KRas Q61H mutant: % inh.: without SOS
In short: as §1

Rho-A = biological target: T1, Rho-A (Homo sapiens, UniProt P61586); assay: as above; settings: read-out: Rho-A: % inh..
T1 construct: made in house
In short: as §1

T1 sequence (P61586 whole entry): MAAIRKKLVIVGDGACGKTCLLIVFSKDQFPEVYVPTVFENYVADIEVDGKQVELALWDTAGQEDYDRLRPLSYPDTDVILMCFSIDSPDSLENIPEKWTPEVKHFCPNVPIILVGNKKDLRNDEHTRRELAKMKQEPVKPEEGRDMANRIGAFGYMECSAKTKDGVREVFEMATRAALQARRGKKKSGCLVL

KRas G12D mutant + SOS: % inh. (KRas G12D mutant) | KRas G12D mutant: % inh. (KRas G12D mutant) | KRas Q61H mutant + SOS: % inh. (KRas Q61H mutant) | KRas Q61H mutant: % inh. (KRas Q61H mutant) | inhibition at 20 µM (Rho-A) [%] | SMILES | % inh of Akt phosphorylation in Panc-1 (Akt phosphorylation)
A (A = 1-25% inhibition) | B (B = 26-49% inhibition) | A (A = 1-25% inhibition) | A (A = 1-25% inhibition) | 26 to 49 | Cc1c(-c2ccn(C(C)C)n2)cn2nc(-c3nccn3C)nc(Nc3cnccn3)c12 [Compound 62, 6-(1-Isopropyl-1H-pyrazol-3-yl)-5-methyl-2-(1-methyl-1H-imidazol-2-yl)-N-(pyrazin-2-yl)pyrrolo[2,1-f][1,2,4]triazin-4-amine] | D* (85-100% activation)
D (D = 76-100% inhibition) | D (D = 76-100% inhibition) | D (D = 76-100% inhibition) | D (D = 76-100% inhibition) | 76 to 100 | COc1cc(Nc2nc(-c3nccn3C)nn3cc(-c4ccn(C)n4)c(C)c23)ncn1 [Compound 63, N-(6-Methoxypyrimidin-4-yl)-5-methyl-2-(1-methyl-1H-imidazol-2-yl)-6-(1-methyl-1H-pyrazol-3-yl)pyrrolo[2,1-f][1,2,4]triazin-4-amine] | D* (85-100% activation)
D (D = 76-100% inhibition) | D (D = 76-100% inhibition) | D (D = 76-100% inhibition) | D (D = 76-100% inhibition) | 76 to 100 | CCn1ccc(-c2cn3nc(-c4nccn4C)nc(Nc4cc(OC)ncn4)c3c2C)n1 [Compound 64, 6-(1-Ethyl-1H-pyrazol-3-yl)-N-(6-methoxypyrimidin-4-yl)-5-methyl-2-(1-methyl-1H-imidazol-2-yl)pyrrolo[2,1-f][1,2,4]triazin-4-amine] | D* (85-100% activation)
C (C = 50-75% inhibition) | C (C = 50-75% inhibition) | C (C = 50-75% inhibition) | C (C = 50-75% inhibition) | 76 to 100 | COc1cc(Nc2nc(-c3nccn3C)nn3cc(-c4cccc(OC)n4)c(C)c23)ncn1 [Compound 65, 6-(6-Methoxypyridin-2-yl)-N-(6-methoxypyrimidin-4-yl)-5-methyl-2-(1-methyl-1H-imidazol-2-yl)pyrrolo[2,1-f][1,2,4]triazin-4-amine] | D* (85-100% activation)
D (D = 76-100% inhibition) | D (D = 76-100% inhibition) | D (D = 76-100% inhibition) | D (D = 76-100% inhibition) | 76 to 100 | COc1ccc(-c2cn3nc(-c4nccn4C)nc(Nc4cc(OC)ncn4)c3c2C)cn1 [Compound 66, 6-(6-Methoxypyridin-3-yl)-N-(6-methoxypyrimidin-4-yl)-5-methyl-2-(1-methyl-1H-imidazol-2-yl)pyrrolo[2,1-f][1,2,4]triazin-4-amine] | D* (85-100% activation)

The next lines start with the compound.

SMILES | KRas G12D mutant + SOS: % inh. (KRas G12D mutant) | KRas G12D mutant: % inh. (KRas G12D mutant) | KRas Q61H mutant + SOS: % inh. (KRas Q61H mutant) | KRas Q61H mutant: % inh. (KRas Q61H mutant) | inhibition at 20 µM (Rho-A) [%] | % inh of Akt phosphorylation in Panc-1 (Akt phosphorylation)
COc1cc(-c2cn3nc(-c4nccn4C)nc(Nc4cc(OC)ncn4)c3c2C)ccn1 [Compound 50, 6-(2-Methoxypyridin-4-yl)-N-(6-methoxypyrimidin-4-yl)-5-methyl-2-(1-methyl-1H-imidazol-2-yl)pyrrolo[2,1-f][1,2,4]triazin-4-amine] | C (C = 50-75% inhibition) | C (C = 50-75% inhibition) | D (D = 76-100% inhibition) | D (D = 76-100% inhibition) | 50 to 75 | D* (85-100% activation)
COc1ccnc(Nc2nc(-c3nccn3C)nn3cc(-c4ccn(C(C)C)n4)c(C)c23)n1 [Compound 53, 6-(1-Isopropyl-1H-pyrazol-3-yl)-N-(4-methoxypyrimidin-2-yl)-5-methyl-2-(1-methyl-1H-imidazol-2-yl)pyrrolo[2,1-f][1,2,4]triazin-4-amine] | C (C = 50-75% inhibition) | C (C = 50-75% inhibition) | D (D = 76-100% inhibition) | D (D = 76-100% inhibition) | 76 to 100 | A* (1-25% activation)
Cc1c(-c2ccn(C(C)C)n2)cn2nc(-c3nccn3C)nc(Nc3ncccn3)c12 [Compound 54, 6-(1-Isopropyl-1H-pyrazol-3-yl)-5-methyl-2-(1-methyl-1H-imidazol-2-yl)-N-(pyrimidin-2-yl)pyrrolo[2,1-f][1,2,4]triazin-4-amine] | C (C = 50-75% inhibition) | D (D = 76-100% inhibition) | D (D = 76-100% inhibition) | D (D = 76-100% inhibition) | 76 to 100 | B* (26-49% activation)
Cc1c(-c2ccn(C(C)C)n2)cn2nc(-c3nccn3C)nc(Nc3ccncn3)c12 [Compound 55, 6-(1-Isopropyl-1H-pyrazol-3-yl)-5-methyl-2-(1-methyl-1H-imidazol-2-yl)-N-(pyrimidin-4-yl)pyrrolo[2,1-f][1,2,4]triazin-4-amine] | C (C = 50-75% inhibition) | D (D = 76-100% inhibition) | D (D = 76-100% inhibition) | D (D = 76-100% inhibition) | 76 to 100 | A* (1-25% activation)
COc1cnc(Nc2nc(-c3nccn3C)nn3cc(-c4ccn(C(C)C)n4)c(C)c23)nc1 [Compound 56, 6-(1-Isopropyl-1H-pyrazol-3-yl)-N-(5-methoxypyrimidin-2-yl)-5-methyl-2-(1-methyl-1H-imidazol-2-yl)pyrrolo[2,1-f][1,2,4]triazin-4-amine] | B (B = 26-49% inhibition) | B (B = 26-49% inhibition) | D (D = 76-100% inhibition) | C (C = 50-75% inhibition) | 50 to 75 | B* (26-49% activation)
Cc1c(-c2ccn(C(C)C)n2)cn2nc(-c3nccn3C)nc(Nc3ccccn3)c12 [Compound 57, 6-(1-Isopropyl-1H-pyrazol-3-yl)-5-methyl-2-(1-methyl-1H-imidazol-2-yl)-N-(pyridin-2-yl)pyrrolo[2,1-f][1,2,4]triazin-4-amine] | D (D = 76-100% inhibition) | D (D = 76-100% inhibition) | D (D = 76-100% inhibition) | D (D = 76-100% inhibition) | 76 to 100 | D* (85-100% activation)
COc1ccnc(Nc2nc(-c3nccn3C)nn3cc(-c4ccn(C(C)C)n4)c(C)c23)c1 [Compound 58, 6-(1-Isopropyl-1H-pyrazol-3-yl)-N-(4-methoxypyridin-2-yl)-5-methyl-2-(1-methyl-1H-imidazol-2-yl)pyrrolo[2,1-f][1,2,4]triazin-4-amine] | D (D = 76-100% inhibition) | D (D = 76-100% inhibition) | D (D = 76-100% inhibition) | C (C = 50-75% inhibition) | 76 to 100 | A* (1-25% activation)
Cc1c(-c2ccn(C(C)C)n2)cn2nc(-c3nccn3C)nc(Nc3nnco3)c12 [Compound 59, N-(6-(1-Isopropyl-1H-pyrazol-3-yl)-5-methyl-2-(1-methyl-1H-imidazol-2-yl)pyrrolo[2,1-f][1,2,4]triazin-4-yl)-1,3,4-oxadiazol-2-amine] | C (C = 50-75% inhibition) | D (D = 76-100% inhibition) | D (D = 76-100% inhibition) | D (D = 76-100% inhibition) | 76 to 100 | C* (46-84% activation)
Cc1c(-c2ccn(C(C)C)n2)cn2nc(-c3nccn3C)nc(Nc3ncco3)c12 [Compound 60, N-(6-(1-Isopropyl-1H-pyrazol-3-yl)-5-methyl-2-(1-methyl-1H-imidazol-2-yl)pyrrolo[2,1-f][1,2,4]triazin-4-yl)oxazol-2-amine] | A (A = 1-25% inhibition) | A (A = 1-25% inhibition) | C (C = 50-75% inhibition) | B (B = 26-49% inhibition) | 1 to 25 | D* (85-100% activation)
Cc1c(-c2ccn(C(C)C)n2)cn2nc(-c3nccn3C)nc(Nc3ccn(C)n3)c12 [Compound 61, 6-(1-Isopropyl-1H-pyrazol-3-yl)-5-methyl-2-(1-methyl-1H-imidazol-2-yl)-N-(1-methyl-1H-pyrazol-3-yl)pyrrolo[2,1-f][1,2,4]triazin-4-amine] | D (D = 76-100% inhibition) | D (D = 76-100% inhibition) | D (D = 76-100% inhibition) | D (D = 76-100% inhibition) | 76 to 100 | C* (46-84% activation)
